The term Ki denotes a dissociation constant, usually derived from enzyme kinetics or from competition with a known ligand.

Experimental findings from patent US8084467B2, “Pyrazole derivatives as cannabinoid receptor antagonists” (University of Connecticut, priority 2004, dated 2011) are described below.

Test [1] addresses T1, CB1 cannabinoid receptor (Rattus norvegicus, UniProt P20272).
T1 construct: membranes were prepared from rat forebrain membranes; from tissue; host or cells: rat forebrain
The experiment in a line: CB1 receptor binding, rat forebrain membranes, [3H] CP-55,940 displacement. The following applies: for Ki: 0.8 nM [3H] CP-55,940; for selectivity CB1: ratio of CB2 Ki to CB1 Ki. Here is the method: Some of the inventive analogs were tested for CB2 receptor binding affinity and for CB1 receptor affinity (to determine selectivity). […] The lower the Ki value the higher the binding affinity. […]
Membranes, previously frozen at −80° C., were thawed on ice. To the stirred suspension was added three volumes of TME (25 mM Tris-HCl buffer, 5 mM MgCl2 and 1 mM EDTA) at a pH 7.4. The suspension was incubated at 4° C. for 30 min. At the end of the incubation, the membranes were pelleted and washed three times with TME.
(§1) The treated membranes were subsequently used in the binding assay described below. Approximately 30 μg of membranes were incubated in silanized 96-well microtiter plate with TME containing 0.1% essentially fatty acid-free bovine serum albumin (BSA), 0.8 nM [^3H] […] Radioactivity was detected using MicroScint 20 scintillation cocktail added directly to the dried filterplates, and the filterplates were counted using a Packard Instruments Top-Count. […] Data collected from three independent experiments performed with duplicate determinations was normalized between 100% and 0% specific binding for [^3H] […] The normalized data was analyzed using a 4-parameter nonlinear logistic equation to yield IC50 values.

For test [2], the target named is T2, CB2 receptor (Mus musculus, UniProt P47936).
T2 construct: membranes were prepared from frozen mouse spleen; from tissue; host or cells: mouse spleen
T2 sequence (P47936 whole entry): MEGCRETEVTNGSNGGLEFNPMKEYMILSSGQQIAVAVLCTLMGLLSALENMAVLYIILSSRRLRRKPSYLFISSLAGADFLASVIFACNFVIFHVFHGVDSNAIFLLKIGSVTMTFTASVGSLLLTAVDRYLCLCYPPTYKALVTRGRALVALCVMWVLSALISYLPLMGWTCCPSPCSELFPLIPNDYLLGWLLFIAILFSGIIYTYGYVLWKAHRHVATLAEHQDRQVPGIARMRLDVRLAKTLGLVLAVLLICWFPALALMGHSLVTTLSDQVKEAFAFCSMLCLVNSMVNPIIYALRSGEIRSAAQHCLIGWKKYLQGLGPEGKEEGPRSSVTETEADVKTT
The experiment in a line: CB2 receptor binding, mouse spleen membranes, same manner as the CB1 binding assay. Particulars: for Ki: [3H] CP-55,940; for selectivity CB2: ratio of CB1 Ki to CB2 Ki. On the procedure: Some of the inventive analogs were tested for CB2 receptor binding affinity and for CB1 receptor affinity (to determine selectivity). […] The lower the Ki value the higher the binding affinity.
as §1
Silanized centrifuge tubes were used throughout to minimize receptor loss due to adsorption. The CB2 binding assay was conducted in the same manner as for the CB1 binding assay. The binding affinities (Ki) were also expressed in nanomoles (nM).

Where [3] appears, read: rat forebrain membranes, read-out: affinities Ki CB1.
[4] abbreviates: mouse spleen membranes, read-out: affinities Ki CB2.
Where [5] appears, read: affinities Ki CB2, mouse spleen membranes.
[6] abbreviates: affinities Ki CB1, rat forebrain membranes.

Where “and” joins values, the source holds several entries; their conditions need not be identical. Equal values may be shown once. Read-outs that look alike come from different tables or passages of the source.

T1 sequence (P20272 whole entry): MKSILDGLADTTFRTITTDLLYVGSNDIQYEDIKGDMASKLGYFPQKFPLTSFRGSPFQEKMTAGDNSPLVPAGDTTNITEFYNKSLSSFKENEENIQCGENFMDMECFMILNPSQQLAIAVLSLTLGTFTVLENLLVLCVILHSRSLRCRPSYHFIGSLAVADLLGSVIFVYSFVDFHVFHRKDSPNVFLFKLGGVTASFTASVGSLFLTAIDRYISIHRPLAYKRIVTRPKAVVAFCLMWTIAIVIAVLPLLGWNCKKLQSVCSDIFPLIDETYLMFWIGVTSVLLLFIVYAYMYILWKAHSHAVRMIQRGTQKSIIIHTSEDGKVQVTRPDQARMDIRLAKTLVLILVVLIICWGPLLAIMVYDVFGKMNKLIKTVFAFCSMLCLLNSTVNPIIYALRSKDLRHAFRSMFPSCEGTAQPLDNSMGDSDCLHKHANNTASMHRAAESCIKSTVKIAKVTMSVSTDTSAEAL

As to `Cc1c(C(=O)NN2CCCCC2)nn(-c2ccc(Cl)cc2Cl)c1-c1ccc(-c2ccc(Cl)cc2)cc1` [Compound 1-2], the Ki in test [1] (setting [3]) worked out at 5.8 nM; in test [2] (setting [4]), 1590 nM. Moreover, the “selectivity CB1” value in test [1] is given as 274.

With `CCCCCC=Cc1nn(-c2ccc(Cl)cc2Cl)c(-c2ccc(Br)cc2)c1C` [Compound 1-26], the Ki in test [1] (setting [3]) was found to be 7680 nM; in test [2] (setting [5]), 52900 nM. In test [1], the “selectivity CB1” value is given as 6.9.

With `COCc1c(C(=O)NC2CCCCC2)nn(-c2ccc(Cl)cc2Cl)c1-c1ccc(Br)cc1` [Compound 1-9], the Ki in test [1] (setting [3]) came to 4 nM; in test [2] (setting [4]), 495 nM. In test [1], the “selectivity CB1” value was determined as 124.

Turning to `Cc1c(C(=O)NN2CCCCC2)nn(-c2ccc(Cl)cc2Cl)c1-c1ccc(-c2nnnn2C)cc1` [Compound 2-2], the inhibition constant Ki in test [1] (setting [3]) came to 90 nM; in test [2] (setting [4]), 242 nM. For the same compound, the “selectivity CB1” value in test [1] came to 2.7.

`Cc1c(C(=O)NN2CCCCC2)nn(-c2ccc(Cl)cc2Cl)c1-c1ccc(-c2ccccc2Cl)cc1` [Compound 1-3]: the Ki came to 85.1 nM in test [1] (setting [3]) and 1370 nM in test [2] (setting [4]). Moreover, in test [1], the “selectivity CB1” value was found to be 16.

Consider `Cc1c(C(=O)NC23CC4CC(CC(C4)C2)C3)nn(CCCCCCl)c1-c1ccccc1` [Compound 4-2], for which the Ki was 1.42 nM and 1.4 nM in test [1] (setting [6]); 0.704 nM and 0.8 nM in test [2] (setting [5]). In addition, the “selectivity CB2” value in test [2] was found to be 1.8.

Turning to `CN(C(=O)c1nn(-c2ccc(Cl)cc2Cl)c(-c2ccc(-c3cccnc3)cc2)c1CO)C1CCCCC1` [Compound 3-4], the Ki in test [1] (setting [3]) stood at 227 nM; in test [2] (setting [4]) it was 759 nM. For the same compound, the “selectivity CB1” value in test [1] is on record as 3.3.

On to `O=C(NN1CCCCC1)c1nn(-c2ccc(-c3cccnc3)cc2Cl)c(-c2ccc(-c3cccnc3)cc2)c1CO` [Compound 3-20], for which the Ki in test [1] (setting [3]) came to 154 nM; in test [2] (setting [4]), 1680 nM. Moreover, in test [1], the “selectivity CB1” value came to 10.9.

On to `Cc1c(NC(=O)N(C)C2CCCCC2)nn(-c2ccc(Cl)cc2Cl)c1-c1ccc(Br)cc1` [Compound 3-11], for which the Ki is 29 nM in test [1] (setting [3]) and 917 nM in test [2] (setting [4]). Besides, the “selectivity CB1” value in test [1] is on record as 31.6.

As to `COCc1c(C(=O)N(C)C2CCCCC2)nn(-c2ccc(Cl)cc2Cl)c1-c1ccc(Br)cc1` [Compound 1-29], the Ki in test [1] (setting [6]) is 273 nM; in test [2] (setting [5]), 2040 nM. Besides, in test [1], the “selectivity CB1” value is recorded as 7.5.

For the compound `CN(C(=O)c1nn(-c2ccc(Cl)cc2Cl)c(-c2ccc(-c3nnn[nH]3)cc2)c1CO)C1CCCCC1` [Compound 2-16], the inhibition constant (Ki) in test [1] (setting [3]) came to 293 nM; in test [2] (setting [4]), 1120 nM. For the same compound, in test [1], the “selectivity CB1” value is given as 3.8.

In the case of `Cc1c(C(=O)NC23CC4CC(CC(C4)C2)C3)nn(CCCCCN=[N+]=[N-])c1-c1ccccc1` [Compound 4-11], the Ki is 3.96 nM and 4 nM in test [1] (setting [6]); 0.965 nM and 1 nM in test [2] (setting [5]). Further, the “selectivity CB2” value in test [2] came to 4.

`Cc1c(C(=O)N(C)C2CCCCC2)nn(-c2ccc(Cl)cc2Cl)c1-c1ccc(C#N)cc1` [Compound 3-15]: the Ki stood at 50 nM in test [1] (setting [3]) and 10800 nM in test [2] (setting [4]). The “selectivity CB1” value in test [1] worked out at 216.5.

Regarding `Cc1c(C(=O)NC2C3CC4CC(C3)CC2C4)nn(CCCCCCl)c1-c1ccccc1` (stereo not shown) [Compound 4-4], the Ki is 7.64 nM and 7.6 nM in test [1] (setting [6]); 8.46 nM and 8.5 nM in test [2] (setting [5]).

As to `COCc1c(C(=O)NC2CCCCC2)nn(-c2ccc(Cl)cc2Cl)c1-c1ccc(-c2ccsc2)cc1` [Compound 1-17], the Ki in test [1] (setting [3]) is 241 nM; in test [2] (setting [4]), 968 nM. For the same compound, the “selectivity CB1” value in test [1] is reported as 4.0.

For `Cc1c(NC(=O)NC2CCCCC2)nn(-c2ccc(Cl)cc2Cl)c1-c1ccc(-c2cccnc2)cc1` [Compound 2-22], the Ki turned out to be 29 nM in test [1] (setting [3]) and 10900 nM in test [2] (setting [4]). In addition, the “selectivity CB1” value in test [1] was found to be 374.6.

Take `Cc1c(NC(=O)NC23CC4CC(CC(C4)C2)C3)nn(-c2ccc(Cl)cc2Cl)c1-c1ccc(Br)cc1` [Compound 3-12]: the Ki in test [1] (setting [3]) was found to be 259 nM; in test [2] (setting [4]), 756 nM. Moreover, the “selectivity CB1” value in test [1] was determined as 2.9.

For the compound `COCc1c(C(=O)NC2CCCCC2)nn(-c2ccc(Cl)cc2Cl)c1-c1ccc(-c2cccnc2)cc1` [Compound 1-18], the inhibitory constant (Ki) in test [1] (setting [3]) stood at 62 nM; in test [2] (setting [4]) it was 646 nM. Moreover, in test [1], the “selectivity CB1” value was 10.4.

For `Cc1c(NC(=O)N2CCCCC2)nn(-c2ccc(Cl)cc2Cl)c1-c1ccc(Br)cc1` [Compound 3-13], the values for the inhibitory constant (Ki) in test [1] (setting [3]) and in test [2] (setting [4]) were 47 nM and 284 nM, respectively. Besides, the “selectivity CB1” value in test [1] amounted to 6.0.

In the case of `CCOCc1c(C(=O)NC2CCCCC2)nn(-c2ccc(Cl)cc2Cl)c1-c1ccc(Br)cc1` [Compound 1-10], the figures for the Ki in test [1] (setting [3]) and in test [2] (setting [4]) were 54 nM and 842 nM, respectively. Also, the “selectivity CB1” value in test [1] is 16.

Consider `CN(C(=O)c1nn(-c2ccc(Cl)cc2Cl)c(-c2ccc(Br)cc2)c1CO)C1CCCCC1` [Compound 3-1], for which the inhibitory constant (Ki) worked out at 29 nM in test [1] (setting [3]) and 1800 nM in test [2] (setting [4]). The “selectivity CB1” value in test [1] is listed as 62.1.

For the compound `CN(C(=O)c1nn(-c2ccc(Cl)cc2Cl)c(-c2ccc(-c3nnnn3C)cc2)c1CO)C1CCCCC1` [Compound 2-17], the Ki in test [1] (setting [3]) is 1080 nM; in test [2] (setting [4]) it was 1410 nM. In test [1], the “selectivity CB1” value was determined as 1.3.

Turning to `COCc1c(C(=O)NC2CCCCC2)nn(-c2ccc(Cl)cc2Cl)c1-c1ccc(-c2ccccn2)cc1` [Compound 1-20], the values for the Ki in test [1] (setting [3]) and in test [2] (setting [4]) were 51 nM and 277 nM, respectively. Besides, the “selectivity CB1” value in test [1] came to 5.4.

On to `O=C(NN1CCCCC1)c1nn(-c2ccc(Cl)cc2Cl)c(-c2ccc(-c3cccnc3)cc2)c1CO` [Compound 3-21], for which the Ki was determined as 76 nM in test [1] (setting [3]) and 207 nM in test [2] (setting [4]).

In the case of `Cc1c(C(=O)NC2CC3CCC2(C)C3(C)C)nn(CCCCCCl)c1-c1ccccc1` (stereo not shown) [Compound 4-1], the inhibitory constant (Ki) was 5.9 nM and 6 nM in test [1] (setting [6]); 2.51 nM and 2.5 nM in test [2] (setting [5]). Further, the “selectivity CB2” value in test [2] came out at 2.4.

`Cc1c(C(=O)NN2CCCCC2)nn(-c2ccc(Cl)cc2Cl)c1-c1ccc(C(=O)O)cc1` [Compound 3-24]: the values for the Ki in test [1] (setting [3]) and in test [2] (setting [4]) were 738 nM and 934 nM, respectively. Moreover, in test [1], the “selectivity CB1” value came to 1.3.

For `O=C(NN1CCCCC1)c1nn(-c2ccc(-c3cccnc3)cc2Cl)c(-c2ccc(-c3cccnc3)cc2)c1CO` [Compound 3-19], the inhibition constant (Ki) in test [1] (setting [3]) was determined as 146 nM; in test [2] (setting [4]), 1920 nM. Besides, in test [1], the “selectivity CB1” value is 13.2.

As to `CN(C(=O)c1nn(-c2ccc(Cl)cc2Cl)c(-c2ccc(I)cc2)c1CO)C1CCCCC1` [Compound 3-2], the inhibition constant Ki was 18 nM in test [1] (setting [6]) and 528 nM in test [2] (setting [5]). In test [1], the “selectivity CB1” value worked out at 29.3.

Regarding `CCOCc1c(C(=O)NN2CCCCC2)nn(-c2ccc(Cl)cc2Cl)c1-c1ccc(Br)cc1` [Compound 1-12], the values for the Ki in test [1] (setting [3]) and in test [2] (setting [4]) were 46 nM and 490 nM, respectively. The “selectivity CB1” value in test [1] is 11.

For the compound `O=C(NN1CCCCC1)c1nn(-c2ccc(Cl)cc2Cl)c(-c2ccc(Br)cc2)c1CO` [Compound 3-3], the results for the inhibition constant Ki in test [1] (setting [6]) and in test [2] (setting [5]) were 46 nM and 490 nM, respectively. The “selectivity CB1” value in test [1] was determined as 10.6.

`Cc1c(C(=O)NN2CCCCC2)nn(-c2ccc(Cl)cc2Cl)c1-c1ccc(C#N)cc1` [Compound 3-23]: the inhibition constant (Ki) stood at 22 nM in test [1] (setting [3]) and 4690 nM in test [2] (setting [4]). In addition, the “selectivity CB1” value in test [1] came to 213.3.

`Cc1c(C(=O)NN2CCCCC2)nn(-c2ccc(Cl)cc2Cl)c1-c1ccc(Br)cc1` [Compound 3-16]: the inhibitory constant (Ki) in test [1] (setting [3]) turned out to be 17 nM; in test [2] (setting [4]), 897 nM. Further, the “selectivity CB1” value in test [1] was 52.8.
